In the NIST ThermoML archive (doi:10.1021/je700339f):
Numbers after ± are expanded uncertainties.

Assay: xn = mol fraction of the nth substance listed
Conditions: 298 K, Liquid

ClCCCCCl [1,4-dichlorobutane] + CN(C)C=O
mass density [kg/m3]
Conditions	x2 = 0.1003	x2 = 0.1923	x2 = 0.2994	x2 = 0.4006	x2 = 0.5022	x2 = 0.6004	x2 = 0.7029	x2 = 0.7943	x2 = 0.9006
10000 kPa	–	–	–	–	1059.3 ± 4.5	1040.8 ± 4.6	1019.7 ± 4.7	999.9 ± 5	975.2 ± 5.1
10500 kPa	1126.8 ± 4.6	1112.9 ± 4.5	1095.5 ± 4.4	1078.7 ± 4.4	1059.7 ± 4.5	1041.1 ± 4.6	1020.1 ± 4.7	1000.2 ± 5	975.5 ± 5.1
10900 kPa	1127.1 ± 4.6	–	–	–	–	–	–	–	–
11000 kPa	–	1113.3 ± 4.5	1095.9 ± 4.4	1079.1 ± 4.4	1060 ± 4.5	1041.5 ± 4.6	1020.4 ± 4.4	–	975.8 ± 5.9
11500 kPa	1127.4 ± 4.6	1113.6 ± 4.5	1096.2 ± 4.4	1079.4 ± 4.4	1060.3 ± 4.5	1041.8 ± 4.6	1020.7 ± 4.7	1000.8 ± 5	976.1 ± 5.1
11900 kPa	–	1113.9 ± 4.5	–	–	1060.6 ± 4.5	–	–	–	–
12000 kPa	1127.8 ± 4.2	–	1096.6 ± 4.4	1079.8 ± 4.4	–	1042.1 ± 4.6	1021.1 ± 4.7	1001.2 ± 5	976.4 ± 5.1
12500 kPa	1128.2 ± 4.6	1114.3 ± 4.5	1096.9 ± 4.4	1080.1 ± 4.4	1061 ± 4.5	1042.4 ± 4.6	1021.4 ± 4.7	1001.5 ± 5	976.7 ± 5.1
12900 kPa	–	–	–	–	–	–	1021.7 ± 4.8	–	–
13000 kPa	1128.5 ± 4.7	1114.7 ± 4.5	1097.3 ± 4.4	1080.4 ± 4.5	1061.3 ± 4.5	1042.7 ± 4.6	–	1001.7 ± 5	976.9 ± 5.1
13500 kPa	1128.9 ± 4.7	1115 ± 4.5	1097.7 ± 4.4	1080.8 ± 4.5	1061.6 ± 4.5	1043.1 ± 4.6	1022 ± 4.8	1002.1 ± 5	977.2 ± 5.1
13900 kPa	–	1115.3 ± 4.5	–	–	1062 ± 4.5	–	–	–	–
14000 kPa	1129.2 ± 4.2	–	1097.9 ± 4.4	1081.1 ± 4.5	–	1043.4 ± 4.6	1022.4 ± 4.8	1002.3 ± 5	977.5 ± 5.1
14400 kPa	–	–	–	1081.4 ± 4.5	–	–	1022.6 ± 4.8	–	–
14500 kPa	1129.5 ± 4.7	1115.7 ± 4.6	1098.2 ± 4.4	–	1062.3 ± 4.5	1043.7 ± 4.6	–	1002.7 ± 5	977.8 ± 5.1
15000 kPa	1129.9 ± 4.7	1116 ± 4.6	1098.6 ± 4.4	1081.8 ± 4.5	1062.6 ± 4.5	1044 ± 4.6	1023 ± 4.8	1003 ± 5	978.1 ± 5.1
15500 kPa	1130.3 ± 4.7	1116.4 ± 4.6	1099 ± 4.5	1082.1 ± 4.5	1063 ± 4.5	1044.4 ± 4.6	1023.2 ± 4.8	1003.3 ± 5	978.4 ± 5.1
16000 kPa	1130.6 ± 4.7	1116.8 ± 4.6	1099.2 ± 4.5	1082.5 ± 4.5	1063.3 ± 4.6	1044.6 ± 4.6	1023.5 ± 4.8	1003.5 ± 5	978.7 ± 5.1
16500 kPa	1130.9 ± 4.7	1117.1 ± 4.6	1099.6 ± 4.5	1082.8 ± 4.5	1063.6 ± 4.5	1045 ± 4.6	1023.8 ± 4.8	1003.8 ± 5	978.9 ± 5.1
16900 kPa	–	1117.4 ± 4.6	–	–	–	–	1024.1 ± 4.8	1004.1 ± 5	–
17000 kPa	1131.3 ± 4.3	–	1100 ± 4.5	1083.1 ± 4.5	1063.9 ± 4.6	1045.3 ± 4.6	–	–	979.3 ± 2.9
17500 kPa	1131.6 ± 4.8	1117.8 ± 4.6	1100.3 ± 4.5	1083.5 ± 4.5	1064.2 ± 4.6	1045.6 ± 4.6	1024.4 ± 4.8	1004.5 ± 5	979.5 ± 5.1
17900 kPa	–	–	–	–	1064.5 ± 4.6	–	–	–	–
18000 kPa	1132 ± 4.8	1118.1 ± 4.6	1100.6 ± 4.5	1083.8 ± 4.5	–	1045.9 ± 4.6	1024.7 ± 4.8	1004.9 ± 5	979.8 ± 5.2
18500 kPa	1132.3 ± 4.8	1118.4 ± 4.7	1100.9 ± 4.5	1084.2 ± 4.5	1065 ± 4.6	1046.3 ± 4.6	1025.1 ± 4.8	1005.1 ± 5	980 ± 5.2
19000 kPa	1132.8 ± 4.8	1118.8 ± 4.7	1101.4 ± 4.5	1084.5 ± 4.5	1065.3 ± 4.6	1046.6 ± 4.6	1025.4 ± 4.8	1005.5 ± 5	980.4 ± 5.2
19400 kPa	–	–	1101.7 ± 4.5	–	–	–	–	1005.7 ± 5	–
19500 kPa	1133.1 ± 4.9	1119.1 ± 4.7	–	1084.9 ± 4.6	1065.5 ± 4.6	1046.9 ± 4.6	1025.7 ± 4.8	–	980.7 ± 2.9
20000 kPa	1133.4 ± 4.9	1119.5 ± 4.7	–	1085.3 ± 4.6	1065.9 ± 4.6	1047.2 ± 4.6	1026.1 ± 4.8	1006.1 ± 5	981 ± 5.2
20100 kPa	–	–	1102.2 ± 4.5	–	–	–	–	–	–
